A short description of data set [1]: AUClast in Sprague-Dawley rat at 3 mg/kg, po by LC-MS/MS analysis. The class given is ADME, organism-based. Further details: time 0 - last, dose 3 mg/kg, route po. To be noted: in vivo.
The nature of data set [2]: Metabolic stability in human liver microsomes assessed as parent compound remaining measured at 60 min in presence of NADPH by LC-MS/MS analysis. The class given is ADME, Microsome. The settings on record: read-out: Stability.
Data set [3] can be described thus: Tmax in Sprague-Dawley rat at 3 mg/kg, po by LC-MS/MS analysis. The settings on record: in vivo. The class given is ADME, organism-based.
Data set [4] is described as follows: MRT in Sprague-Dawley rat at 1 mg/kg, iv by LC-MS/MS analysis. The class given is ADME, organism-based. The settings on record: in vivo.
Data set [5] can be described thus: Metabolic stability in human liver microsomes assessed as parent compound remaining measured at 60 min in absence of NADPH by LC-MS/MS analysis. To be noted: read-out: Stability. The class given is ADME, Microsome.
The nature of data set [6]: AUCinfinity in Sprague-Dawley rat at 1 mg/kg, iv by LC-MS/MS analysis. On the set-up: time infinity, dose 1 mg/kg, route iv. The class given is ADME, organism-based. To be noted: in vivo.
Data set [7] can be described thus: Metabolic stability in human liver microsomes assessed as half life in presence of NADPH by LC-MS/MS analysis. The class given is ADME, Microsome.
Data set [8] can be described thus: MRT in Sprague-Dawley rat at 3 mg/kg, po by LC-MS/MS analysis. The class given is ADME, organism-based. To be noted: in vivo.
Data set [9] is described as follows: Stability of the compound in human plasma assessed as remaining compound measure after 10 mins by LC-MS/MS analysis. The class given is ADME, cell-free.
Data set [10] is described as follows: Stability of the compound in human plasma assessed as remaining compound measure after 30 mins by LC-MS/MS analysis. The class given is ADME, cell-free. The settings on record: read-out: Stability.
A short description of data set [11]: Stability of the compound in human plasma assessed as remaining compound measure after 60 mins by LC-MS/MS analysis. The class given is ADME, cell-free. The settings on record: read-out: Stability.
The nature of data set [12]: Half life in Sprague-Dawley rat at 1 mg/kg, iv by LC-MS/MS analysis. The class given is ADME, organism-based. To be noted: in vivo.
Data set [13] in a line: AUClast in Sprague-Dawley rat at 1 mg/kg, iv by LC-MS/MS analysis. The class given is ADME, organism-based. On the set-up: time 0 - last, dose 1 mg/kg, route iv. To be noted: in vivo.
Data set [14] is described as follows: Stability of the compound in human plasma assessed as remaining compound measure after 120 mins by LC-MS/MS analysis. The class given is ADME, cell-free. The settings on record: read-out: Stability.
A short description of data set [15]: Metabolic stability in human liver assessed as intrinsic clearance in presence of NADPH by LC-MS/MS analysis. The class given is ADME, tissue-based. To be noted: read-out: CLH.
Data set [16] in a line: Metabolic stability in human microsomes assessed as intrinsic clearance in presence of NADPH by LC-MS/MS analysis. The class given is ADME, Microsome.
Data set [17] in a line: Cmax in Sprague-Dawley rat at 3 mg/kg, po by LC-MS/MS analysis. The class given is ADME, organism-based. To be noted: in vivo. On the set-up: dose 3 mg/kg, route po.
Data set [18] is described as follows: Volume of distribution at steady state in Sprague-Dawley rat at 1 mg/kg, iv by LC-MS/MS analysis. The class given is ADME, organism-based. The settings on record: in vivo, read-out: Vdss.
A short description of data set [19]: Oral bioavailability in Sprague-Dawley rat at 3 mg/kg by LC-MS/MS analysis. The settings on record: in vivo. The class given is ADME, organism-based.
Data set [20] in a line: Stability of the compound in human plasma assessed as half life by LC-MS/MS analysis. The class given is ADME, cell-free.

The structures appear in SMILES notation.

With `O=C(N[C@@H]1CCCNC1)c1cccc(Nc2ncc(Cl)c(NCc3cccc(F)c3)n2)c1`, the area under the curve AUC(0-t) (in general, the area under the concentration-time curve up to a stated or last time point) in data set [1] turned out to be 188 ng·h/mL; in data set [13] it was 325 ng·h/mL. For the same compound, the remaining at 1 h in data set [2] turned out to be 90.2%; in data set [5] it was 96%; in data set [11], 90.5%. Further, the Tmax (as a rule, the time at which the peak concentration occurs) in data set [3] turned out to be 4 h. Also, the MRT (as a rule, the average time that molecules of a dose stay in the body) amounted to 3.96 h in [4] and 3.49 h in data set [8]. In [6], the AUC – broadly, concentration integrated over time – worked out at 386 ng·h/mL. The half-life (commonly the time needed for the level to fall by half in the phase considered) in [7] was greater than 2.42 h; in [12], 3.4 h; in [20], greater than 4.82 h. Moreover, the Stability in data set [9] turned out to be 84%. The remaining at 0.5 h in data set [10] stood at 90.1%. The remaining at 2 h in data set [14] was determined as 103%. The CLint scaled was less than 8.6 mL/min/kg in [15] and less than 9.6 mL/min/kg in [16]. In addition, the concentration in data set [17] peaked (Cmax) at 33.6 ng/mL. Further, the Vd in [18] worked out at 31 L/kg. The bioavailability (as a rule, the share of a dose that reaches the circulation, judged against a reference dose that is usually intravenous) in [19] came to 17.4%.
